Data published in publication PMC11187126, “Structure and dynamics of the pyroglutamylated RF-amide peptide QRFP receptor GPR103” (Nature Communications, 2024).
Where two headings read alike, the source gives them in different places. No end group written: not given here.

Biological target: T1, GPR103 Y194^ECL2A (Homo sapiens, UniProt Q96P65, Y194A)
T1 construct: we used human full-length QRFPR-encoding plasmids; expressed in transfected cells; host or cells: HEK293 cells, pCAGGS vector
T1 sequence (Q96P65 1-431 Y194A): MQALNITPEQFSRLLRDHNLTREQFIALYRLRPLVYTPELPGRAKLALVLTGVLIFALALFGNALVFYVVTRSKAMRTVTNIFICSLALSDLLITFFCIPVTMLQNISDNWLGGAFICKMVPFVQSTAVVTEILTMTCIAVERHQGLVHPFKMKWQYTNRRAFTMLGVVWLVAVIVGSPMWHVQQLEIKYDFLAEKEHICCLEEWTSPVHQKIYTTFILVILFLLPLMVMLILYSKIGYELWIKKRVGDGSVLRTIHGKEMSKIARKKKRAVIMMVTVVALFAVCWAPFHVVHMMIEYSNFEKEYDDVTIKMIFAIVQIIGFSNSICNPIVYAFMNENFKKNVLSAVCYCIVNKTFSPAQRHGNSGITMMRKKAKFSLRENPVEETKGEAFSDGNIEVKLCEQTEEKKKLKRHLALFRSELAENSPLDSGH
Assay: TGFα shedding assay; Exp. level WT (1:10)
Type: cell-based
Description: For the TGFα shedding assay and the flow cytometry analysis, we used human full-length QRFPR-encoding plasmids. Specifically, GPR103 was N-terminally modified with an HA signal sequence followed by a FLAG epitope and then a flexible linker ([…]; the FLAG epitope is underlined) and inserted into the pCAGGS vector. Plasmid encoding GPR103 mutants were generated using Quickchange Site-Directed Mutagensis kit (Agilent).
The TGFα shedding assay was performed as described previously with minor modifications. Plasmid transfection was performed in a 6-well plate with a mixture of 500 ng (per well in a 6-well plate) AP-TGFα-encoding plasmid and 200 ng GPR103-encoding plasmid. After 1-day culture, the transfected cells were harvested by trypsinization, pelleted by centrifugation at 190 × g for 5 min, and washed once with 5 mM HEPES (pH 7.4)-containing Hank’s Balanced Salt Solution (HBSS). After centrifugation, the cells were resuspended in 8 mL of the HEPES-containing HBSS. The cell suspension was seeded in a 96-well culture plate (cell plate) at a volume of 90 μL (per well hereafter) and incubated in a 37 °C incubator with 5% CO2 for 30 min. […] After spinning the cell plates at 190 × g for 2 min, 80 μL of conditioned media was transferred to an empty 96-well plate (conditioned media (CM) plate). Then, 80 μL of AP reaction solution (10 mM p-nitrophenylphosphate (p-NPP), 120 mM Tris-HCl (pH 9.5), 40 mM NaCl, and 10 mM MgCl2) was dispensed into the cell plates and the CM plates. Absorbance at 405 nm of the plates was measured using a microplate reader (SpectraMax 340 PC384, Molecular Devices) before and after 1-h incubation at room temperature. Ligand-induced AP-TGFα release was calculated by subtracting spontaneous AP-TGFα release signal from ligand-induced AP-TGFα release signal. The AP-TGFα release signals were fitted to a four-parameter sigmoidal concentration–response curve, using the Prism 10 software (GraphPad Prism). For each replicate experiment, the pEC50 parameter (negative logarithmic values of EC50 values) of the individual GPR103 mutants were normalized to that of the wild-type GPR103 performed in parallel, and resulting ∆pEC50 values were used to denote ligand response activity of the mutants. […]
Exp. le vel: WT (1:5 0)Exp. le vel: WT (1:5 0)Exp. le vel: WT (1:5 0)Exp. le vel: WT (1:2 0)Exp. le vel: WT (1:2 0)Exp. le vel: WT (1:1 0) […]
L1 4N - t e r mA F2 5N - t e r mA I 2 6N - t e r mA Y 2 9N - t e r mA C 9 82 .5 7A T10 22 .6 1A Exp . l eve l: WT (1 :5)Exp . l evel : >WT (1 :1)Exp. le vel: WT (1:2 0)Exp. le vel: WT (1:2 0)Exp. le vel: WT (1:5 0)Exp . l eve l: WT (1 :1) […]
Exp. le vel: WT (1:1 0)Exp. le vel: WT (1:2 0) C 1 1 83 .2 5AExp. le vel: WT (1:5 0)Exp. le vel: WT (1:5 0)Exp. le vel: WT (1:2 0)Exp . l eve l: WT (1 :5) […]
Exp. le vel: WT (1:5 0)Exp. le vel: WT (1:1 0)Exp. le vel: WT (1:5 0) E203ECL2AExp . l evel : >WT (1 :1)Exp. le vel: WT (1:5 0)Exp. le vel: WT (1:5 0) […]
Exp . l eve l: WT (1 :1) F28Exp. le vel: WT (1:5 0) C 2 8 56 .4 7AExp. le vel: WT (1:2 0) WExp. le vel: WT (1:2 0) F28Exp. le vel: WT (1:5 0)Exp . l evel : >WT (1 :1) […]
Exp. le vel: WT (1:5 0)Exp. le vel: WT (1:5 0) C 3 2 77 .4 8AExp . l eve l: WT (1 :5)Exp . l evel : >WT (1 :1)Exp . l evel : >WT (1 :1) […]
Suppl eme nt ary Figure 1 | Mutational analysis of GPR103. […]
mutants. Data are presented as mean values ± SEM, normally n=3-5; dots), each performed in triplicate. b-d Cell-surface expression (b) and QRFP26-in-duced activation of GPR103 (c, d) were analyzed by the flow cytometry and the TGFα shedding assay, respectively. From the concentration–response curves (a), Emax (c) and ΔpEC50 (d) values relative to the wild type were calculated. Colors in the mutant bars indicate an expression level matching to that of titrated wild type. Statistical analyses were performed using the ordinary one-way ANOVA followed by Dunnett tests with the expression-matched […]

## TSGPLGNLAEELNGYSRKKGGFSFRF-NH2 [QRFP26]
Exp. #1
  Emax: 91.33 % WT
Exp. #2
  Emax: 94.38 % WT
Exp. #3
  Emax: 115.19 % WT
mean, read-out: Emax
  Emax: 100%
N = 3
  EC50: 93.3 nM
N = 3, read-out: Emax
  Emax: 102 ± 6.1%
